Reference: patent US9113629B2, “4-amino-6-(4-substituted-phenyl)-picolinates and 6-amino-2-(4-substituted-phenyl)-pyrimidine-4-carboxylates and their use as herbicides” (DOW AGROSCIENCES LLC, priority 2013, dated 2015)

Assays:
Assay in all cases: Post-emergent Test III, herbicidal activity in wheat and barley
Format in all cases: in vivo
Conditions in all cases: 21 days after application
[1] = tested on: HORSS: barley, including spring and winter (Hordeum vulgare)
Procedure, shortened: (§1)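 Plants at the second to third true-leaf stage, grown in a greenhouse at about 18/17 °C with a 14 h photoperiod, were sprayed post-emergence at 187 L/ha with the high rate and ½× to 1/16× serial dilutions in an acetone/DMSO/crop-oil/surfactant carrier. Injury was rated visually at 21 d on a 0–100% scale, and GR20–GR90 were derived by probit analysis.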

[2] = tested on: TRZSS: wheat, including spring and winter (Triticum aestivum)
Procedure, shortened: as §1

[3] = tested on: MATSS: scented mayweed (Matricaria chamomilla), pineappleweed (Matricaria matricarioides)
Procedure, shortened: as §1

[4] = tested on: VIOSS: wild pansy (Viola tricolor), field violet (Viola arvensis)
Procedure, shortened: as §1

[5] = tested on: VERPE: bird's-eye speedwell (veronica persica)
Procedure, shortened: as §1

[6] = tested on: SASKR: Russian thistle (Salsola iberica)
Procedure, shortened: as §1

[7] = tested on: KCHSC: kochia (Kochia scoparia)
Procedure, shortened: as §1

[8] = probit analysis, dose for 20 percent growth reduction (crop)
[9] = probit analysis, dose for 50 percent growth reduction
[10] = probit analysis, dose for 80 percent growth reduction

SMILES: COc1c(N)nc(-c2ccc(I)cc2F)nc1C(=O)O [Compound 72]
- pest or weed control at 35 g/ha ([1]; Hordeum vulgare, post-emergence, 504 h, 35 g ai/ha, read-out: Visual Gorowth Reduction (%) 21 days After Application HORSS): 45 to 59%
- pest or weed control at 70 g/ha ([1]; Hordeum vulgare, post-emergence, 504 h, 70 g ai/ha, read-out: Visual Gorowth Reduction (%) 21 days After Application HORSS): 60 to 74%
- GR20 HORSS [1, 8]: 5 g ai/ha
- pest or weed control at 35 g/ha ([2]; Triticum aestivum, post-emergence, 504 h, 35 g ai/ha, read-out: Visual Gorowth Reduction (%) 21 days After Application TRZSS): 75 to 84%
- pest or weed control at 70 g/ha ([2]; Triticum aestivum, post-emergence, 504 h, 70 g ai/ha, read-out: Visual Gorowth Reduction (%) 21 days After Application TRZSS): 85 to 94%
- GR20 TRZSS [2, 8]: 1 g ai/ha
- pest or weed control at 35 g/ha ([3]; Matricaria chamomilla, post-emergence, 504 h, 35 g ai/ha, read-out: Visual Gorowth Reduction (%) 21 days After Application MATSS): 0 to 29%
- pest or weed control at 70 g/ha ([3]; Matricaria chamomilla, post-emergence, 504 h, 70 g ai/ha, read-out: Visual Gorowth Reduction (%) 21 days After Application MATSS): 30 to 44%
- GR50 MATSS [3, 9]: 126 g ai/ha
- GR80 MATSS [3, 10]: >140 g ai/ha
- pest or weed control at 35 g/ha ([4]; Viola tricolor, post-emergence, 504 h, 35 g ai/ha, read-out: Visual Gorowth Reduction (%) 21 days After Application VIOSS): 30 to 44%
- pest or weed control at 70 g/ha ([4]; Viola tricolor, post-emergence, 504 h, 70 g ai/ha, read-out: Visual Gorowth Reduction (%) 21 days After Application VIOSS): 45 to 59%
- GR50 VIOSS [4, 9]: 67 g ai/ha
- GR80 VIOSS [4, 10]: >140 g ai/ha
- pest or weed control at 35 g/ha ([5]; Veronica persica, post-emergence, 504 h, 35 g ai/ha, read-out: Visual Gorowth Reduction (%) 21 days After Application VERPE): 85 to 94%
- pest or weed control at 70 g/ha ([5]; Veronica persica, post-emergence, 504 h, 70 g ai/ha, read-out: Visual Gorowth Reduction (%) 21 days After Application VERPE): 95 to 100%
- GR50 VERPE [5, 9]: 1 g ai/ha
- GR80 VERPE [5, 10]: 8 g ai/ha
- pest or weed control at 35 g/ha ([6]; Salsola tragus, post-emergence, 504 h, 35 g ai/ha, read-out: Visual Gorowth Reduction (%) 21 days After Application SASKR): 30 to 44%
- pest or weed control at 70 g/ha ([6]; Salsola tragus, post-emergence, 504 h, 70 g ai/ha, read-out: Visual Gorowth Reduction (%) 21 days After Application SASKR): 60 to 74%
- GR50 SASKR [6, 9]: 48 g ai/ha
- GR80 SASKR [6, 10]: 106 g ai/ha
- pest or weed control at 35 g/ha ([7]; Bassia scoparia, post-emergence, 504 h, 35 g ai/ha, read-out: Visual Gorowth Reduction (%) 21 days After Application KCHSC): 60 to 74%
- pest or weed control at 70 g/ha ([7]; Bassia scoparia, post-emergence, 504 h, 70 g ai/ha, read-out: Visual Gorowth Reduction (%) 21 days After Application KCHSC): 60 to 74%
- GR50 KCHSC [7, 9]: 27 g ai/ha
- GR80 KCHSC [7, 10]: 105 g ai/ha
